How the values were obtained:
Assay in all cases: Histone peptide microarray
Format in all cases: binding, human
Conditions in all cases: total n = 4
KDM5A (3) = test system: KDM5A (3)
Summary of the method: (§1)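 Readout is array binding signal, reported as the mean and standard deviation over four replicates. Each purified GST-fused PHD domain was incubated at 0.5 μM with a library of 293 modified histone peptides.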

BPTF (PB) = test system: BPTF (PB)
Summary of the method: as §1

DIDO1 = test system: DIDO1
Summary of the method: as §1

KDM7A = test system: KDM7A
Summary of the method: as §1

CHD5 (PCC) = test system: CHD5 (PCC)
Summary of the method: as §1

CHD5 (PPCC) = test system: CHD5 (PPCC)
Summary of the method: as §1

KDM5B (1) = test system: KDM5B (1)
Summary of the method: as §1

ING2 = test system: ING2
Summary of the method: as §1

PHRF1 (RP) = test system: PHRF1 (RP)
Summary of the method: as §1

SP140L = test system: SP140L
Summary of the method: as §1

KDM5A (1) = test system: KDM5A (1)
Summary of the method: as §1

PHF2 = test system: PHF2
Summary of the method: as §1

TRIM66 (PB) = test system: TRIM66 (PB)
Summary of the method: as §1

ING1 = test system: ING1
Summary of the method: as §1

MLL5 = test system: MLL5
Summary of the method: as §1

KDM5B (3) = test system: KDM5B (3)
Summary of the method: as §1

PHF23 = test system: PHF23
Summary of the method: as §1

BAZ2B = test system: BAZ2B
Summary of the method: as §1

RAG2 = test system: RAG2
Summary of the method: as §1

PHF21A = test system: PHF21A
Summary of the method: as §1

PHF13 = test system: PHF13
Summary of the method: as §1

ING3 = test system: ING3
Summary of the method: as §1

TAF3 = test system: TAF3
Summary of the method: as §1

ING5 = test system: ING5
Summary of the method: as §1

MORC3 (CW) = test system: MORC3 (CW)
Summary of the method: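 A peptide microarray holding 293 synthetic histone peptides with individual or combinatorial modifications was probed with each GST-PHD protein at 0.5 μM. Values represent mean intensity (±SD) from four replicates.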

PHF8 = test system: PHF8
Summary of the method: as §1

KDM4C (TTP) = test system: KDM4C (TTP)
Summary of the method: as §1

DPF2 (PPC2W2) = test system: DPF2 (PPC2W2)
Summary of the method: as §1

CHD4 (PPCC) = test system: CHD4 (PPCC)
Summary of the method: as §1

AIRE (PP) = test system: AIRE (PP)
Summary of the method: as §1

ING4 = test system: ING4
Summary of the method: as §1

[1] = sheet "Array Heatmap", GST-tagged reader, histone peptide array

H3K4me3 + K9ac + K18ac: H3 1-20
Array Heatmap signal (histone peptide microarray) (KDM5A (3); GST-tagged KDM5A (3), sheet Array Heatmap, each array performed twice): 0.919
Array Heatmap signal (histone peptide microarray) (BPTF (PB); GST-tagged BPTF (PB = PHD + Bromodomain), sheet Array Heatmap, each array performed twice): 0.7655
Array Heatmap signal (histone peptide microarray) (DIDO1; GST-tagged DIDO1, sheet Array Heatmap, each array performed twice): 0.9071
Array Heatmap signal (histone peptide microarray) (KDM7A; GST-tagged KDM7A, sheet Array Heatmap, each array performed twice): 1
Array Heatmap signal (histone peptide microarray) (CHD5 (PCC); GST-tagged CHD5 (PCC = PHD + Dual Chromodomain), sheet Array Heatmap, each array performed twice): 0.8455
Array Heatmap signal (histone peptide microarray) (CHD5 (PPCC); GST-tagged CHD5 (PPCC = Dual PHD + Dual Chromodomain), sheet Array Heatmap, each array performed twice): 0.6046
Array Heatmap signal (histone peptide microarray) (KDM5B (1); GST-tagged KDM5B (1), sheet Array Heatmap, each array performed twice): 0.7108
Array Heatmap signal (histone peptide microarray) (ING2; GST-tagged ING2, sheet Array Heatmap, each array performed twice): 0.8776
Array Heatmap signal (histone peptide microarray) (PHRF1 (RP); GST-tagged PHRF1 (RP), sheet Array Heatmap, each array performed twice): 0.6174
Array Heatmap signal (histone peptide microarray) (SP140L; GST-tagged SP140L, sheet Array Heatmap, each array performed twice): 0.3543
Array Heatmap signal (histone peptide microarray) (KDM5A (1); GST-tagged KDM5A (1), sheet Array Heatmap, each array performed twice): 0.5009
Array Heatmap signal (histone peptide microarray) (PHF2; GST-tagged PHF2, sheet Array Heatmap, each array performed twice): 0.7127
Array Heatmap signal (histone peptide microarray) (TRIM66 (PB); GST-tagged TRIM66 (PB = PHD + Bromodomain), sheet Array Heatmap, each array performed twice): 0.7372
Array Heatmap signal (histone peptide microarray) (ING1; GST-tagged ING1, sheet Array Heatmap, each array performed twice): 0.8615
Array Heatmap signal (histone peptide microarray) (MLL5; GST-tagged MLL5, sheet Array Heatmap, each array performed twice): 0.9085
Array Heatmap signal (histone peptide microarray) (KDM5B (3); GST-tagged KDM5B (3), sheet Array Heatmap, each array performed twice): 0.9067
Array Heatmap signal (histone peptide microarray) (PHF23; GST-tagged PHF23, sheet Array Heatmap, each array performed twice): 0.8424
Array Heatmap signal (histone peptide microarray) (BAZ2B; GST-tagged BAZ2B, sheet Array Heatmap, each array performed twice): 0.5371
Array Heatmap signal (histone peptide microarray) (RAG2; GST-tagged RAG2, sheet Array Heatmap, each array performed twice): 0.8902
Array Heatmap signal (histone peptide microarray) (PHF21A; GST-tagged PHF21A, sheet Array Heatmap, each array performed twice): 0.4825
Array Heatmap signal (histone peptide microarray) (PHF13; GST-tagged PHF13, sheet Array Heatmap, each array performed twice): 0.8179
Array Heatmap signal (histone peptide microarray) (ING3; GST-tagged ING3, sheet Array Heatmap, each array performed twice): 0.8253
Array Heatmap signal (histone peptide microarray) (TAF3; GST-tagged TAF3, sheet Array Heatmap, each array performed twice): 0.7825
Array Heatmap signal (histone peptide microarray) (ING5; GST-tagged ING5, sheet Array Heatmap, each array performed twice): 0.4905
Array Heatmap signal (histone peptide microarray) (MORC3 (CW); GST-tagged MORC3 (CW = CW-type Zn-finger), sheet Array Heatmap, each array performed twice): 0.8949
Array Heatmap signal (histone peptide microarray) (PHF8; GST-tagged PHF8, sheet Array Heatmap, each array performed twice): 1
Array Heatmap signal (histone peptide microarray) (KDM4C (TTP); GST-tagged KDM4C (TTP = Tandem Tudor domain + PHD), sheet Array Heatmap, each array performed twice): 0.7748
Array Heatmap signal (histone peptide microarray) (DPF2 (PPC2W2); GST-tagged DPF2 (PPC2W2 = Dual PHD + C2W2-type Zn-finger), sheet Array Heatmap, each array performed twice): 0.728
Array Heatmap signal (histone peptide microarray) (CHD4 (PPCC); GST-tagged CHD4 (PPCC = Dual PHD + Dual Chromodomain), sheet Array Heatmap, each array performed twice): 0.5646
Array Heatmap signal (histone peptide microarray) (AIRE (PP); GST-tagged AIRE (PP), sheet Array Heatmap, each array performed twice): 0.5297
Array Heatmap signal (histone peptide microarray) (ING4; GST-tagged ING4, sheet Array Heatmap, each array performed twice): 0.6909

H3R17me1: H3 1-20 [Peptide H3R17me1]
Array Heatmap signal, KDM5A (3) (KDM5A (3); [1]): 0.5587
Array Heatmap signal, BPTF (PB) (BPTF (PB); [1]): 0.345
Array Heatmap signal, DIDO1 (DIDO1; [1]): 0.721
Array Heatmap signal, KDM7A (KDM7A; [1]): 0.3476
Array Heatmap signal, CHD5 (PCC) (CHD5 (PCC); [1]): 0.834
Array Heatmap signal, CHD5 (PPCC) (CHD5 (PPCC); [1]): 0.5588
Array Heatmap signal, KDM5B (1) (KDM5B (1); [1]): 0.6928
Array Heatmap signal, ING2 (ING2; [1]): 0.6036
Array Heatmap signal, PHRF1 (RP) (PHRF1 (RP); [1]): 0.8251
Array Heatmap signal, SP140L (SP140L; [1]): 0.359
Array Heatmap signal, KDM5A (1) (KDM5A (1); [1]): 0.4728
Array Heatmap signal, PHF2 (PHF2; [1]): 0.5204
Array Heatmap signal, TRIM66 (PB) (TRIM66 (PB); [1]): 0.643
Array Heatmap signal, ING1 (ING1; [1]): 0.5598
Array Heatmap signal, MLL5 (MLL5; [1]): 0.5956
Array Heatmap signal, KDM5B (3) (KDM5B (3); [1]): 0.5296
Array Heatmap signal, PHF23 (PHF23; [1]): 0.5635
Array Heatmap signal, BAZ2B (BAZ2B; [1]): 0.4823
Array Heatmap signal, RAG2 (RAG2; [1]): 0.268
Array Heatmap signal, PHF21A (PHF21A; [1]): 0.4738
Array Heatmap signal, PHF13 (PHF13; [1]): 0.6124
Array Heatmap signal, ING3 (ING3; [1]): 0.4855
Array Heatmap signal, TAF3 (TAF3; [1]): 0.2696
Array Heatmap signal, ING5 (ING5; [1]): 0.3567
Array Heatmap signal, MORC3 (CW) (MORC3 (CW); [1]): 0.4904
Array Heatmap signal, PHF8 (PHF8; [1]): 0.3543
Array Heatmap signal, KDM4C (TTP) (KDM4C (TTP); [1]): 0.4745
Array Heatmap signal, DPF2 (PPC2W2) (DPF2 (PPC2W2); [1]): 0.7016
Array Heatmap signal, CHD4 (PPCC) (CHD4 (PPCC); [1]): 0.598
Array Heatmap signal, AIRE (PP) (AIRE (PP); [1]): 0.4567
Array Heatmap signal, ING4 (ING4; [1]): 0.4637
